According to patent publication US12404345B2, “Humanized antibodies against iRHOM2” (SCIRHOM GMBH, priority 2021, dated 2025):

Test system: PMA-induced release of endogenous HB-EGF from human PBMCs from healthy donors
Assay: ELISA-based HB-EGF release assay, PMA-induced, PBMCs from healthy donors
Type: cell-based
Conditions: PBMC, Batimastat 10 μM, PMA 25 ng/ml, 24 hours
Method: In the following study, ELISA-based HB-EGF release assays were performed to analyze the inhibitory effects of the antibodies of the invention on PMA-induced release of endogenous HB-EGF from primary human material obtained from healthy donors using peripheral blood mononuclear cells (PBMCs).
In brief, on day 1, Nunc black MaxiSorp® 96-well plates (Thermo Fisher Scientific, USA) were coated overnight with 100 μl per well of mouse anti-human HB-EGF capture antibody (provided as part of the DuoSet ELISA kit) at 2 μg/ml TBS at 4° C. […]
After 4 times washing with 350 μl TBS-T (Carl Roth, Germany) per well on a 96-head plate washer (Tecan Group, Switzerland) and careful removal of all buffer traces after the fourth cycle, 100 μl streptavidin-AP (R&D Systems, USA) diluted 1:10,000 in TBS were added to each well and, again protected from direct light, plates were incubated at room temperature for 30 minutes. […] Using an infinite M1000 (Tecan Group, Switzerland) microplate reader, the fluorescence of each well was collected at an excitation wavelength of 435 nm and an emission wavelength of 555 nm.

CNC(=O)[C@H](Cc1ccccc1)NC(=O)[C@H](CC(C)C)[C@H](CSc1cccs1)C(=O)NO [Batimastat]
inhibition at 10 µM: 100%
